Experimental data published in patent US6643591B1, “Use of computational and experimental data to model organic compound reactivity in cytochrome P450 mediated reactions and to optimize the design of pharmaceuticals” (University of Pittsburgh, priority 1998, dated 2003).
Several values for one entry are separate records, joined by “and”; a condition that tells them apart may be missing. Equal values may be shown once. Marks after values point to notes of the source that are not given here.

Legend:
CYP1A2 = molecular target: T1, CYP1A2 (Homo sapiens, UniProt P05177); details: pH 7.4
T1 sequence (P05177 1-516): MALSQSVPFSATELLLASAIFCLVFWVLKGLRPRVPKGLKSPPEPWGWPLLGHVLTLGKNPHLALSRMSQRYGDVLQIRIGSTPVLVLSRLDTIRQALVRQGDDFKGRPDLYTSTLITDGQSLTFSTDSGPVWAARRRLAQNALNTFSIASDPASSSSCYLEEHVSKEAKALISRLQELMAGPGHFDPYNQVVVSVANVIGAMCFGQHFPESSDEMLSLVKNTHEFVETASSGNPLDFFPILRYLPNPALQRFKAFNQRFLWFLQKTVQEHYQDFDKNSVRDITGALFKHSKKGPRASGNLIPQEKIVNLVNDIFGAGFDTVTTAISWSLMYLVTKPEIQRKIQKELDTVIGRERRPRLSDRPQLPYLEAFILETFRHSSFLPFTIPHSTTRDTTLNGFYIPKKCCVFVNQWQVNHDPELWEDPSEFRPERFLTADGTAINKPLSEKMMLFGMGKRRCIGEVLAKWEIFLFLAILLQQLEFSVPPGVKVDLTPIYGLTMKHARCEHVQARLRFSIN

CYP2C8 = molecular target: T2, CYP2C8 (Homo sapiens, UniProt P10632); details: pH 7.4
T2 sequence (P10632 1-490): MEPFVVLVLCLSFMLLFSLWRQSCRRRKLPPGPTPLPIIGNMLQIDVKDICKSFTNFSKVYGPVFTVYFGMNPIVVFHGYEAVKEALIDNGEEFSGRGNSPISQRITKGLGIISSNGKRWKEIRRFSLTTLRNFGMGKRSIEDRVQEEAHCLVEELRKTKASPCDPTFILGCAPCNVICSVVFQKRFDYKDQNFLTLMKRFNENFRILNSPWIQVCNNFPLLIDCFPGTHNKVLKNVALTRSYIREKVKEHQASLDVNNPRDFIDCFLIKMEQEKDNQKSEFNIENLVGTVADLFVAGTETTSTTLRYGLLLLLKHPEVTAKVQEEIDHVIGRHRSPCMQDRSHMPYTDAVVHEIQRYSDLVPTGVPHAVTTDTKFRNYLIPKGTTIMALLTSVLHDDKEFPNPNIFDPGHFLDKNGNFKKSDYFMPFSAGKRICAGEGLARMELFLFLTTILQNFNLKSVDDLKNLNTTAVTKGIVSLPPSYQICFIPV

CYP4B1 = CYP4B1 (Oryctolagus cuniculus, UniProt P15128)
CYP = assay: Activation energy differences from experimental regioselectivity of substrates in rapid equilibrium; format: in vitro ADME; design: unit not given here; details: difference in activation energy calculated by the experimental regioselectivity
Excerpt: Five substrates shown to undergo rapid equilibrium between positions of metabolism have been used to prepare data for regression and then correlation with Eq. 1. The differences in activation energy calculated by the experimental regioselectivity of the substrates, along with the differences in AM1 activation enthalpies, are given in Table 1. Regression of the experimental data gives a slope correction for AM1 activation energies of 0.75±0.20.

CYP2B1 = molecular target: T3, CYP2B1 (Rattus norvegicus, UniProt P00176)
T3 sequence (P00176 1-491): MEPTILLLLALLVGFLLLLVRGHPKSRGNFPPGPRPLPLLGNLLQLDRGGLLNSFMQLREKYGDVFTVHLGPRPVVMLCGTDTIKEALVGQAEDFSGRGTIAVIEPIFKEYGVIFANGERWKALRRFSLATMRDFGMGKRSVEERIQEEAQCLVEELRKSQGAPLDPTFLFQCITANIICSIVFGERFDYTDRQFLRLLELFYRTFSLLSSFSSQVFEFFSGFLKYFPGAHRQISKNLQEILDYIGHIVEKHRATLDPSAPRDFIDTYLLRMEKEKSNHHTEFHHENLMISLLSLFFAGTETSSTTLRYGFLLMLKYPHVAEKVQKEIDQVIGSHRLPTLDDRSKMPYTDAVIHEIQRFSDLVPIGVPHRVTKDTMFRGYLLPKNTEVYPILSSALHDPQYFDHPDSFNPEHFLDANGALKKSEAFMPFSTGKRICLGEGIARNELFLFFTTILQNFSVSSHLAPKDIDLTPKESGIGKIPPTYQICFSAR

CYP2C9 = CYP2C9 (Homo sapiens, UniProt P11712); details: human, pH 7.4
CYP2C9, sequence (P11712 whole entry): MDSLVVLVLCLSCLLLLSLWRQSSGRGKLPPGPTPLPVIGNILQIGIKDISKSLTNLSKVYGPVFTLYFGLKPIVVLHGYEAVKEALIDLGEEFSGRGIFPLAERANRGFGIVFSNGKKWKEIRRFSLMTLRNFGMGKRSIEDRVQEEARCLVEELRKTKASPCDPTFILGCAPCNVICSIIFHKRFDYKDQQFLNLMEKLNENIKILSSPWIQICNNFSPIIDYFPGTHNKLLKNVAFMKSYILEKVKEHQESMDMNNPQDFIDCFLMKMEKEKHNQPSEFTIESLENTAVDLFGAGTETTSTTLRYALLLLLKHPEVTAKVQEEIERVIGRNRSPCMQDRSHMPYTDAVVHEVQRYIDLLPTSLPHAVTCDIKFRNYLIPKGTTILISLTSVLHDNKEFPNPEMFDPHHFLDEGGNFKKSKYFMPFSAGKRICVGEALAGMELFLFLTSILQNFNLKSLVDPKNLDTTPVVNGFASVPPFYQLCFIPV

CYP4B1, sequence (P15128 whole entry): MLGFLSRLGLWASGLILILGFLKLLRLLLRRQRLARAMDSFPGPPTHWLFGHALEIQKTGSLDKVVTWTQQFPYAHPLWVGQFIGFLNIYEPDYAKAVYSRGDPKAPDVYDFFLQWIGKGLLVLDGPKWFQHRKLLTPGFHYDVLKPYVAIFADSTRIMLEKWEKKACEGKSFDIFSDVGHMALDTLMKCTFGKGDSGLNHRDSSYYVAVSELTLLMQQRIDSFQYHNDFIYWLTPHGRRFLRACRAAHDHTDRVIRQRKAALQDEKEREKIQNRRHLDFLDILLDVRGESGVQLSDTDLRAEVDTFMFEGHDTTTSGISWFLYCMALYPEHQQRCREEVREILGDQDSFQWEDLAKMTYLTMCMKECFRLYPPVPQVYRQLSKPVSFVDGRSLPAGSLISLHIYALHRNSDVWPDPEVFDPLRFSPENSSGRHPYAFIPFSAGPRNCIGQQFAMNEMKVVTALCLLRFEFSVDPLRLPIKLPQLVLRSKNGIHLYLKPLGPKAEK

## COc1ccccc1C [o-Methylanisole, o-methylanisole]
CYP1A2
  INTER KIE (combined intermolecular competitive KIE): 9.15
  Intramolecular KIE (kH/kD): 5.7
  Metabolite profile, Phenol: 54 Mol-%
  Metabolite profile, o-CR: 12 Mol-%
  Metabolite profile, o-MBA: 34 Mol-%
  P, calculated primary KIE: 6.7
  Ratio of ring hydroxylation para to the methoxy group to ODAlk: 4.5
  S, calculated secondary KIE: 1.17
  nmol 4M3MPh: 9.7* nmol
  nmol TP: 18.0 nmol
  nmol o-CR: 2.2* nmol
  nmol o-MBA: 6.1* nmol
CYP2C8
  Metabolite profile, Phenol: 33 Mol-%
  Metabolite profile, o-CR: 36 Mol-%
  Metabolite profile, o-MBA: 31 Mol-%
  nmol 4M3MPh: 0.2 nmol
  nmol TP: 0.6 nmol
  nmol o-CR: 0.2 nmol
  nmol o-MBA: 0.21 nmol
CYP4B1
  INTER KIE (combined intermolecular competitive KIE): 14.94
  Intramolecular KIE (kH/kD): 6.90
  P, calculated primary KIE: 8.9
  S, calculated secondary KIE: 1.29
CYP4B1; pH 7.4
  Metabolite profile, o-CR: 59 Mol-%
  Metabolite profile, o-MBA: 39 Mol-%
  Ratio ODAlk:Arom: 0.03
  nmol 4M3MPh: 1.1* nmol
  nmol TP: 48 nmol
  nmol o-CR: 29* nmol
  nmol o-MBA: 18.7* nmol
CYP
  ΔΔG (experimental): 0.3
CYP2B1
  INTER KIE (combined intermolecular competitive KIE): 9.3
  Intramolecular KIE (kH/kD): 5.78
  P, calculated primary KIE: 6.8
  S, calculated secondary KIE: 1.2
CYP2B1; rat, pH 7.4
  Metabolite profile, Phenol: 63 Mol-%
  Metabolite profile, o-CR: 18 Mol-%
  Metabolite profile, o-MBA: 19 Mol-%
  Ratio of ring hydroxylation para to the methoxy group to ODAlk: 3.5
  nmol 4M3MPh: 9.1* nmol
  nmol TP: 13* nmol
  nmol o-CR: 2.3* nmol
  nmol o-MBA: 2.37* nmol
CYP2C9
  INTER KIE (combined intermolecular competitive KIE): 12
  Intramolecular KIE (kH/kD): 6.3
  Metabolite profile, Phenol: 32 Mol-%
  Metabolite profile, o-CR: 22 Mol-%
  Metabolite profile, o-MBA: 46 Mol-%
  P, calculated primary KIE: 8
  Ratio of ring hydroxylation para to the methoxy group to ODAlk: 1.5
  S, calculated secondary KIE: 1.2
  nmol TP: 6.9* nmol
  nmol o-CR: 1.5* nmol
  nmol o-MBA: 3.1* nmol

## COc1ccc(C)cc1 [p-Methylanisole, p-methylanisole]
CYP1A2
  INTER KIE (combined intermolecular competitive KIE): 5.9
  P, calculated primary KIE: 5.0
  S, calculated secondary KIE: 1.08
CYP2C8
  nmol p-CR: 0.20 nmol
  nmol p-MBA: 1.89 nmol
  nmol total TP: 2.08 nmol
CYP4B1
  INTER KIE (combined intermolecular competitive KIE): 1.4 and 1.42
  Intramolecular KIE (kH/kD): 6.08
CYP4B1; pH 7.4
  nmol p-CR: 48* nmol
  nmol p-MBA: 63* nmol
  nmol total TP: 111* nmol
CYP
  ΔΔG (experimental): 1.1
CYP2B1
  INTER KIE (combined intermolecular competitive KIE): 5.8
  Intramolecular KIE (kH/kD): 3.69
  P, calculated primary KIE: 4.3
  S, calculated secondary KIE: 1.16
CYP2B1; rat, pH 7.4
  nmol p-CR: 2.0* nmol
  nmol p-MBA: 4.2* nmol
  nmol total TP: 6.2* nmol
CYP2C9
  INTER KIE (combined intermolecular competitive KIE): 2.6
